Literature values as cited in paper PMC8138767, “Intrinsically disordered substrates dictate SPOP subnuclear localization and ubiquitination activity” (The Journal of Biological Chemistry, 2021).

What was measured:
SPOP = conditions: in phase-separated droplets in cells; cited from earlier work
From the text: SPOP derives its name from the […]. Specifically, SPOP colocalizes with nuclear speckles but has also been reported in other subnuclear compartments ([24], [26]). The nuclear speckles that house SPOP in the absence of high concentrations of substrate are liquid-like in nature ([21]). The SPOP substrate DAXX typically localizes to promyelocytic leukemia bodies ([27]).

SPOP28–359 = biological target: T1, SPOP28–359 (Homo sapiens, UniProt O43791); conditions: substrates with six (DAXX) and seven (AR) SB motifs; cited from earlier work
T1 construct: A plasmid encoding His–SUMO–SPOP human residues 28 to 359; His-SUMO (N, cleaved yes); made in house; host or cells: E. coli Rosetta BL-21(DE3)
From the text: We next sought to assess the role of SPOP oligomerization in the SPOP–Pdx1 interaction and saw a near 10-fold enhancement in binding affinity of Pdx1 to oligomeric SPOP28–359 compared with SPOP–MATH (Fig. 5B and Table S4) in agreement with previous similar observations ([22], [23]). Concentration-dependent SPOP self-association results in an ensemble of oligomeric species with sizes spanning from dimers to large multimers ([21]). SPOP substrates DAXX and AR are also multivalent for SPOP; they contain six and seven SB motifs, respectively, which dramatically enhances their affinities for SPOP28 ...

T1 sequence (O43791 28-359): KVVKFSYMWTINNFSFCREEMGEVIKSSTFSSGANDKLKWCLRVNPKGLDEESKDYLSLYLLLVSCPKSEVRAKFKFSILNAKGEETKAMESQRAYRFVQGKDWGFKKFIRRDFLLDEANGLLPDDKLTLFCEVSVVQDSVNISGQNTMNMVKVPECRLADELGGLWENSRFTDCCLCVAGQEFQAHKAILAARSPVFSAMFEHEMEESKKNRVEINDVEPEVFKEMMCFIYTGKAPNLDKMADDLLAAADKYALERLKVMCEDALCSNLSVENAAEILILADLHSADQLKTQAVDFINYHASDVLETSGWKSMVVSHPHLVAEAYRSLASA

AR: androgen receptor, SPOP substrate with seven SB motifs
SPOP-mediated polyubiquitination in cells (SPOP): robust SPOP-mediated polyubiquitination | affinity for SPOP28–359 relative to SPOP–MATH (SPOP28–359): dramatically enhances their affinities for SPOP28–359 relative to SPOP–MATH
